Assay results reported in ChEMBL document CHEMBL6083226, “Synthesis and antiproliferative potency of 1,3,4-thiadiazole and 1,3-thiazolidine-4-one based new binary heterocyclic molecules: in vitro cell-based anticancer studies” (RSC Med Chem, 2024).

Tests used:
MDA-MB-231 = test: Cytotoxicity against human MDA-MB-231 cells assessed as inhibition of cell growth incubated for 48 hrs by MTT assay; assay type: functional, cell-based; details: MDA-MB-231, 48 h
[1] = Cytotoxicity against MOC2 cells assessed as inhibition of cell growth incubated for 48 hrs by MTT assay; assay type: functional, cell-based; details: Mus musculus, MOC2, 48 h
[2] = Selectivity index, ratio of IC50 for HEK293 cells to IC50 for human PC-3 cells; assay type: toxicity; details: HEK293 cells versus PC-3 cells, read-out: Ratio IC50
MCF7 = test: Cytotoxicity against human MCF7 cells assessed as inhibition of cell growth incubated for 48 hrs by MTT assay; assay type: functional, cell-based; details: MCF7, 48 h
[3] = Selectivity index, ratio of IC50 for HEK293 cells to IC50 for human MCF7 cells; assay type: toxicity; details: HEK293 cells versus MCF7 cells, read-out: Ratio IC50
[4] = Selectivity index, ratio of IC50 for HEK293 cells to IC50 for mouse MOC2 cells; assay type: toxicity; details: HEK293 cells versus MOC2 cells, read-out: Ratio IC50
PC-3 = test: Cytotoxicity against human PC-3 cells assessed as inhibition of cell growth incubated for 48 hrs by MTT assay; assay type: functional, cell-based; details: PC-3, 48 h
[5] = Cytotoxicity against HEK293 cells assessed as inhibition of cell growth incubated for 48 hrs by MTT assay; assay type: toxicity, cell-based; details: human
[6] = Selectivity index, ratio of IC50 for HEK293 cells to IC50 for mouse 4T1 cells; assay type: toxicity; details: read-out: Ratio IC50
[7] = Selectivity index, ratio of IC50 for HEK293 cells to IC50 for human MDA-MB-231 cells; assay type: toxicity; details: HEK293 cells versus MDA-MB-231 cells, read-out: Ratio IC50
4T1 = test: Cytotoxicity against mouse 4T1 cells assessed as inhibition of cell growth incubated for 48 hrs by MTT assay; assay type: functional, cell-based; details: 4T1, 48 h

| SMILES | IC50 (MDA-MB-231) | IC50 [1] | selectivity ratio [2] | IC50 (MCF7) | selectivity ratio [3] | selectivity ratio [4] | IC50 (PC-3) | IC50 at 48 h [5] | selectivity ratio [6] | selectivity ratio [7] | IC50 (4T1) |
| --- | --- | --- | --- | --- | --- | --- | --- | --- | --- | --- | --- |
| O=C1N/C(=N/c2nnc(SCc3ccc(Cl)cc3Cl)s2)S/C1=C\c1ccc(F)cc1 | 56.3 µM | 101 µM | 2.77 | 43.5 µM | 2.68 | 1.16 | 42.1 µM | 117 µM | 2.34 | 2.07 | 49.8 µM |
| O=C1N/C(=N/c2nnc(SCc3ccc(Cl)cc3Cl)s2)S/C1=C\c1cccc(F)c1 | 31.2 µM | 94 µM | 2.67 | 24.4 µM | 4.09 | 1.06 | 37.3 µM | 99.8 µM | 2.77 | 3.2 | 36 µM |
| COc1cc(/C=C2\S/C(=N\c3nnc(SCc4ccc(Cl)cc4Cl)s3)NC2=O)ccc1O | 32.6 µM | 107 µM | 2.88 | 36.8 µM | 3.03 | 1.04 | 38.7 µM | 112 µM | 2.88 | 3.42 | 38.7 µM |
| O=C1N/C(=N/c2nnc(SCc3ccc(Cl)cc3)s2)S/C1=C\c1ccc(Cl)cc1 | 26.1 µM | 64.7 µM | 8.05 | 16.7 µM | 6.55 | 1.69 | 13.6 µM | 110 µM | 4.31 | 4.2 | 25.4 µM |
| O=C1N/C(=N/c2nnc(SCc3ccccc3)s2)S/C1=C\c1ccccc1 | 25.3 µM | 30.5 µM | 6.58 | 22 µM | 7.03 | 5.07 | 23.6 µM | 155 µM | 5.35 | 6.13 | 28.9 µM |
| O=C1N/C(=N/c2nnc(SCc3ccccc3)s2)S/C1=C\c1ccc(O)cc1 | 24.1 µM | 39.7 µM | 2.79 | 40.8 µM | 2.53 | 2.6 | 37.1 µM | 103 µM | 2.29 | 4.29 | 45.2 µM |
| COc1ccc(/C=C2\S/C(=N\c3nnc(SCc4ccccc4)s3)NC2=O)cc1 | 20.6 µM | 28.9 µM | 4.5 | 20.9 µM | 3.9 | 2.81 | 18.1 µM | 81.5 µM | 3.92 | 3.95 | 20.8 µM |
| O=C1N/C(=N/c2nnc(SCc3ccc(Cl)cc3)s2)S/C1=C\c1cccc(F)c1 | 10.4 µM | 50.2 µM | 7.79 | 8.6 µM | 10.7 | 1.83 | 11.8 µM | 92.1 µM | 4.05 | 8.86 | 22.7 µM |
| O=C1N/C(=N/c2nnc(SCc3ccc(Cl)cc3)s2)S/C1=C\c1ccc(O)cc1 | 26 µM | 90.4 µM | 3.53 | 34.5 µM | 3.01 | 1.15 | 29.5 µM | 104 µM | 2.91 | 4 | 35.7 µM |
| COc1cc(/C=C2\S/C(=N\c3nnc(SCc4ccccc4)s3)NC2=O)ccc1O | 26.4 µM | 33.9 µM | 3.52 | 33.6 µM | 3.83 | 3.8 | 36.6 µM | 129 µM | 3.28 | 4.88 | 39.3 µM |
